Consider 28 molecules from ChEMBL document CHEMBL5131534, “Identification of 2-Pyridinylindole-Based Dual Antagonists of Toll-like Receptors 7 and 8 (TLR7/8)” (ACS Med Chem Lett, 2022).

Some results are limits rather than exact numbers.

Data set [1] deals with T1, Toll-like receptor 7 (Homo sapiens, UniProt Q9NYK1).
T1 sequence (Q9NYK1 whole entry): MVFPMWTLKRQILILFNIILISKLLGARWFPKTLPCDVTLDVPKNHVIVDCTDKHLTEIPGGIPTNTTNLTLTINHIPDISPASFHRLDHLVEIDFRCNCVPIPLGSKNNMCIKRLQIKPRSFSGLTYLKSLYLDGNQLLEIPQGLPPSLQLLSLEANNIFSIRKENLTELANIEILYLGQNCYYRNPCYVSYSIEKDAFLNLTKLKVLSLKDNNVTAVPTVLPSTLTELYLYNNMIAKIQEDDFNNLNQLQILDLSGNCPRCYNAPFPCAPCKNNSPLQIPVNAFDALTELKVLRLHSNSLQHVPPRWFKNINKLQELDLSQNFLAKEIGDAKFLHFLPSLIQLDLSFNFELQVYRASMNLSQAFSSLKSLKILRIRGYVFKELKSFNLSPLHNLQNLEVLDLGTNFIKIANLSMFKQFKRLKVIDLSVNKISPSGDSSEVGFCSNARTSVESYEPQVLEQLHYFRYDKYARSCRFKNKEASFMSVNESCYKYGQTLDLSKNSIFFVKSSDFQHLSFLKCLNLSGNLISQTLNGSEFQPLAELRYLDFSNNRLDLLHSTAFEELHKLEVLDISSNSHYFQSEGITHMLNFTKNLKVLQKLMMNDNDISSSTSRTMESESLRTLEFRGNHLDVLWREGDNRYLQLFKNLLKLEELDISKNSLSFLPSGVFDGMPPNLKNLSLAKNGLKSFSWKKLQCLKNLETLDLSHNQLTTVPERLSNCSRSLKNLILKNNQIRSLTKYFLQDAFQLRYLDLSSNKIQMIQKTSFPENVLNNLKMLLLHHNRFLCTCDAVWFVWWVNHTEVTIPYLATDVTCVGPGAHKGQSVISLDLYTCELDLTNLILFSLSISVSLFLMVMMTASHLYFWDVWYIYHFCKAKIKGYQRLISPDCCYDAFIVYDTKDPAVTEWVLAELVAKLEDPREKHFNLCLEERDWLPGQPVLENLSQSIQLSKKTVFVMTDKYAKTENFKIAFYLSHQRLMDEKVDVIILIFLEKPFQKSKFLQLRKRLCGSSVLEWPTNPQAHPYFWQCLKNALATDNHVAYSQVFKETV
The data set can be described thus: Antagonist activity at gardiquimod stimulated human TRL7 overexpressed in HEK293 cells assessed as inhibition of NF kappa B/Ap-1 activation preincubated with compound for 30 mins followed by gardiquimod stimulation measured after 22 hrs by SEAP reporter assay. The format is cell-based. On the technique in general: In a reporter assay the amount or activity of a reporter protein is the signal.

The test system of data set [2] is Mus musculus. The data set can be described thus: Anti-inflammatory activity against MRL/Ipr Systemic lupus erythematosus mouse model assessed as inhibition of urinary NGAL at 10 mg/kg, po administered for 8 weeks and measured 24 hrs post final dose relative to control. The format is functional. Also noted: scale not given: the % may be the effect or the level left. The note with it: time 1368 hrs.

Data set [3] in a line: Toxicity in MRL/Ipr Systemic lupus erythematosus mouse model assessed as change in body weight at 10 mg/kg, po administered for 8 weeks and measured 24 hrs post final dose. It counts as organism-based. To be noted: in vivo, 1368 h.
Data set [4] has as its system Mus musculus. The data set can be described thus: Anti-inflammatory activity against MRL/Ipr Systemic lupus erythematosus mouse model assessed as inhibition of proteinuria at 10 mg/kg, po administered for 8 weeks and measured 24 hrs post final dose relative to control. The format is functional. The note with it: time 1368 hrs. Further details: scale not given: the % may be the effect or the level left.

In data set [5] the test system is Mus musculus. Briefly: Anti-inflammatory activity against MRL/Ipr Systemic lupus erythematosus mouse model assessed as inhibition of anti-dsDNA Ab titer at 10 mg/kg, po administered for 8 weeks and measured 24 hrs post final dose relative to control. It counts as functional. Also noted: scale not given: the % may be the effect or the level left. The note with it: time 1368 hrs.

The subject of data set [6] is Mus musculus. Briefly: Anti-inflammatory activity against MRL/Ipr Systemic lupus erythematosus mouse model assessed as inhibition of anti-Sm/RNP Ab titer at 10 mg/kg, po administered for 8 weeks and measured 24 hrs post final dose relative to control. To be noted: time 1368 hrs. The format is functional. Also noted: scale not given: the % may be the effect or the level left.

Data set [7] in a line: Toxicity in MRL/Ipr Systemic lupus erythematosus mouse model assessed as relative spleen weight at 10 mg/kg, po administered for 8 weeks and measured 24 hrs post final dose relative to control. It counts as organism-based. The note with it: in vivo, 1368 h.
The species entered for data set [8] is Homo sapiens. The data set can be described thus: Selectivity ratio of IC50 for human TLR9 to IC50 for human TLR7.
Data set [9] concerns the target T2, Toll-like receptor 8 (Homo sapiens, UniProt Q9NR97).
T2 sequence (Q9NR97 whole entry): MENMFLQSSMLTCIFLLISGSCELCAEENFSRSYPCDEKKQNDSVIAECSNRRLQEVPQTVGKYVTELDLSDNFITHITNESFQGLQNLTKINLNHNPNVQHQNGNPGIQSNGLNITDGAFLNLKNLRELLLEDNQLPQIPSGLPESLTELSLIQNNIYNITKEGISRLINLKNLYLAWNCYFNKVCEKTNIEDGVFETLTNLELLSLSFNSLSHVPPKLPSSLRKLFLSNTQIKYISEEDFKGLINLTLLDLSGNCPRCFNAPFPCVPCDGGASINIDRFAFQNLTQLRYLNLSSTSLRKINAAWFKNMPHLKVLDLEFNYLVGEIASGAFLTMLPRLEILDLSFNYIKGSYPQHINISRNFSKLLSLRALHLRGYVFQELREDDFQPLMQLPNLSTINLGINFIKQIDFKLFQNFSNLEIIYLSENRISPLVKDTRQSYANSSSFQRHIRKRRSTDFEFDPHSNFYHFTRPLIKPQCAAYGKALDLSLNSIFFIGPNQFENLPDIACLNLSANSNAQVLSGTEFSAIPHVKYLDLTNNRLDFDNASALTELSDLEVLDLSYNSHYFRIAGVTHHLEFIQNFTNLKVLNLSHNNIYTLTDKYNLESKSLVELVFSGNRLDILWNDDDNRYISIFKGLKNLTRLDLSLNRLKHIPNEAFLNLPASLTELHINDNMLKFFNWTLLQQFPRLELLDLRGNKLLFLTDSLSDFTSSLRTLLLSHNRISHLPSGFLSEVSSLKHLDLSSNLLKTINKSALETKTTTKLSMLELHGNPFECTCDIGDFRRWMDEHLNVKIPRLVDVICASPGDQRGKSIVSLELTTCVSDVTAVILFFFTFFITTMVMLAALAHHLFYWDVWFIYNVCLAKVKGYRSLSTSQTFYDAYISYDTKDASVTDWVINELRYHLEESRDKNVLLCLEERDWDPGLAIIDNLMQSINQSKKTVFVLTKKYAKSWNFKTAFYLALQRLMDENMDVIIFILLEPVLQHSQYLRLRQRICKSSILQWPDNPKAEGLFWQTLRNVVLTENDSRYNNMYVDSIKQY
The data set can be described thus: Antagonist activity at R848 stimulated human TRL8 overexpressed in HEK293 cells assessed as inhibition of NF kappa B/Ap-1 activation preincubated with compound for 30 mins followed by R848 stimulation measured after 22 hrs by SEAP reporter assay. It counts as cell-based.

In general, IC50 refers to the concentration at which inhibition is half-maximal.

Turning to `COc1cc(-c2[nH]c3ccc(C4CCNCC4)cc3c2C(C)C)cc(C)n1`, in [1], the half-maximal inhibitory concentration (IC50) was determined as 0.0019 µM.
The same measure, in the same setting: for `Cc1nc(C)c(C)c(-c2[nH]c3ccc(C4CCNCC4)cc3c2C(C)C)c1C` the value was 0.3 µM.
On to `C[C@]12C=CC(=O)C=C1CC[C@@H]1[C@@H]2[C@@H](O)C[C@@]2(C)[C@H]1CC[C@]2(O)C(=O)CO` [PREDNISOLONE], for which the Activity was 74% in data set [2]; “Toxic” in [3]; 77% in data set [4]; 85% in [5]; 79% in data set [6]; 88% in data set [7].
As to `CC(C)c1c(-c2ccncc2)[nH]c2ccc(C3CCNCC3)cc12`, the IC50 in data set [1] was found to be 0.029 µM.
The same measure, in the same setting: for `CNCCN1CCC(c2ccc3[nH]c(-c4ccc(OC)nc4)c(C)c3c2)CC1` the value was greater than 10 µM.
Consider `CCc1cc(-c2[nH]c3ccc(C4CCNCC4)cc3c2C(C)C)cc(C)n1`, for which the IC50 in data set [1] is 0.057 µM.
For `Cc1cc(-c2[nH]c3cc(F)c(C4CCNCC4)cc3c2C(C)C)ccn1`, the IC50 in data set [1] is 0.0008 µM.
On to `Cc1cc(-c2[nH]c3ccc(C4CCNCC4)cc3c2C(C)C)ccn1`, for which the Ratio IC50 in data set [8] came to 160.
`Cc1cc(-c2[nH]c3ccc(C4CCNCC4)cc3c2C(C)C)cc(C2CC2)n1`: the half-inhibitory concentration (IC50) in [1] was determined as 0.022 µM.
The same measure, in the same setting: for `CCc1c(-c2ccnc(C)c2)[nH]c2cc(F)c(C3CCNCC3)c(F)c12` the value was 0.013 µM.
On to `CCc1c(-c2ccnc(C)c2)[nH]c2c(F)cc(C3CCNCC3)cc12`, for which the Ratio IC50 in [8] stood at 1.
The same measure, in the same setting: in the case of `Cc1cc(-c2[nH]c3ccc(C4CCNCC4)cc3c2C(C)C)cc(F)n1` it was 1050.
For `CNCCN1CCC(c2ccc3[nH]c(-c4cccc(OC)n4)c(C)c3c2)CC1`, the IC50 in data set [1] was greater than 10 µM.
Same read-out and setting: in the case of `Cc1cc(-c2[nH]c3ccc(C4CCNCC4)c(F)c3c2C(C)C)cc(C)n1` it was 0.0009 µM.
Turning to `Cc1cc(-c2[nH]c3ccc(C4CCNCC4)cc3c2C(C)C)c(C)c(C)n1`, the Ratio IC50 in data set [8] is 130.
For `CCc1c(-c2ccnc(C)c2)[nH]c2ccc(C3CCNCC3)cc12`, in data set [1], the half-maximal inhibitory concentration (IC50) is 0.024 µM.
`COc1cc(-c2[nH]c3ccc(C4CCNCC4)cc3c2C(C)C)ccn1`: in [1], the concentration for half-maximal inhibition (IC50) was 0.074 µM.
Turning to `CC(C)c1c(-c2ccncc2CO)[nH]c2ccc(C3CCNCC3)cc12`, the half-inhibitory concentration (IC50) in data set [1] was found to be 0.2 µM.
The same measure, in the same setting: for `CNCCN1CCC(c2ccc3[nH]c(-c4cccnc4)c(C)c3c2)CC1` the value was greater than 10 µM.
Consider `Cc1cnccc1-c1[nH]c2ccc(C3CCNCC3)cc2c1C(C)C`, for which the Ratio IC50 in data set [8] stood at 91.
Take `CCc1c(-c2ccnc(C)c2)[nH]c2ccc(C3CCNCC3)c(C)c12`: the IC50 in data set [1] stood at 0.014 µM.
Take `Cc1nccc(-c2[nH]c3ccc(C4CCNCC4)cc3c2C(C)C)c1C`: in [1], the 50% inhibitory concentration (IC50) was found to be 0.028 µM. In data set [8], the Ratio IC50 came to 25.
Take `Cc1cc(-c2[nH]c3cc(C(F)(F)F)c(C4CCNCC4)cc3c2C(C)C)ccn1`: the IC50 is 0.42 µM in data set [9] and 0.017 µM in data set [1]. The Ratio IC50 in [8] amounted to 77.
As to `Cc1cc(-c2[nH]c3ccc(C4CCNCC4)cc3c2C(C)C)c(C)cn1`, the Ratio IC50 in data set [8] is 370.
Consider `CNCCN1CCC(c2ccc3[nH]c(-c4cncc(OC)c4)c(C)c3c2)CC1`, for which the half-inhibitory concentration (IC50) in [1] is 3.3 µM.
In the case of `Cc1cc(-c2[nH]c3cc(C)c(C4CCNCC4)cc3c2C(C)C)ccn1`, in data set [1], the IC50 came out at 0.0082 µM.
The same measure, in the same setting: in the case of `CC(C)c1c(-c2ccnc(C3CC3)c2)[nH]c2ccc(C3CCNCC3)cc12` it was 0.092 µM.
As for `CC(C)c1c(-c2ccnc(CO)c2)[nH]c2ccc(C3CCNCC3)cc12`, in data set [8], the Ratio IC50 was 19.
